#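 Test compounds were applied to cells in 96-well plates for 48 hours at 5 doses. GI50: concentration for 50% inhibition of growth. TGI: concentration producing complete growth inhibition.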
# Assays:
# Assay in all cases: NCI anticancer screen, dose series, 48 h
# SK-OV-3 ovarian = test system: SK-OV-3 ovarian
# A549 NSCLC = test system: A549 NSCLC
# SK-MEL-28 melanoma = test system: SK-MEL-28 melanoma
# HT29 colon = test system: HT29 colon
# ACHN renal = test system: ACHN renal
# RXF 393 renal = test system: RXF 393 renal
# OVCAR-8 ovarian = test system: OVCAR-8 ovarian
# MCF7 breast = test system: MCF7 breast
# PC-3 prostate = test system: PC-3 prostate
# SR leukemia = test system: SR leukemia
Structure (SMILES),TGI (SK-OV-3 ovarian),TGI (A549 NSCLC),TGI (SK-MEL-28 melanoma),TGI (HT29 colon),TGI (ACHN renal),TGI (RXF 393 renal),TGI (OVCAR-8 ovarian),TGI (MCF7 breast),TGI (PC-3 prostate),GI50 (SK-OV-3 ovarian),GI50 (A549 NSCLC),GI50 (SK-MEL-28 melanoma),GI50 (MCF7 breast),GI50 (HT29 colon),GI50 (ACHN renal),GI50 (RXF 393 renal),GI50 (OVCAR-8 ovarian),GI50 (PC-3 prostate),TGI (SR leukemia)
CCOc1ccccc1NC(=O)C1=C(C)NC(C)=C(C(=O)Nc2ccccc2OCC)C1c1cccc([N+](=O)[O-])c1,> 100 µM,> 100 µM,> 100 µM,> 100 µM,> 100 µM,> 100 µM,> 100 µM,–,–,–,–,–,–,–,–,–,–,–,–
COc1ccc2c(c1)[nH]c1c3ccc(OC)cc3oc(=O)c21,> 100 µM,> 100 µM,> 100 µM,> 100 µM,> 100 µM,> 100 µM,> 100 µM,> 100 µM,> 100 µM,–,–,–,–,–,–,–,–,–,–
CC1=C(SCCC(=O)OC(C[Se]C2=C(C)C(=O)c3ccccc3C2=O)C(=O)NC(C)(C)C)C(=O)c2ccccc2C1=O (stereo not drawn),2.74 µM,4.59 µM,3.16 µM,3.39 µM,2.9 µM,3.33 µM,2.74 µM,3.65 µM,1.69 µM,1.43 µM,1.11 µM,1.78 µM,1.62 µM,1.78 µM,1.56 µM,1.73 µM,1.28 µM,0.457 µM,–
CCOC(=O)Cc1cc(=O)[nH]c(-n2[nH]c(C)c(CCO)c2=O)n1,> 100 µM,> 100 µM,> 100 µM,> 100 µM,> 100 µM,> 100 µM,> 100 µM,> 100 µM,> 100 µM,–,–,–,–,–,–,–,–,–,–
O=C(N/C(=C\c1ccc(F)cc1)c1nc2ccccc2[nH]1)c1ccccc1,> 100 µM,> 100 µM,> 100 µM,> 100 µM,> 100 µM,> 100 µM,> 100 µM,–,–,–,–,–,–,–,–,–,–,–,–
Cc1c(Cl)cccc1NC(=O)C(=O)c1c(O)c2ccc(O)cc2oc1=O,> 100 µM,> 100 µM,> 100 µM,> 100 µM,> 100 µM,> 100 µM,> 100 µM,–,–,–,–,–,–,–,–,–,–,–,> 100 µM
CC(CC(=O)Nc1ccc(NC(=O)CC(C)N=NC(N)=O)cc1)N=NC(N)=O (stereo not drawn),> 100 µM,> 100 µM,> 100 µM,> 100 µM,> 100 µM,> 100 µM,> 100 µM,–,–,–,–,–,–,–,–,–,–,–,48.4 µM
C[C@@H](C[C@H](CCO)c1ccccc1)c1ccc2ccccc2c1,3.1 µM,3.14 µM,3.06 µM,2.8 µM,3.01 µM,2.91 µM,3.82 µM,4.04 µM,2.72 µM,1.7 µM,1.71 µM,1.64 µM,1.97 µM,1.43 µM,1.65 µM,1.45 µM,1.85 µM,1.39 µM,–
CCN1CCC(O)(/C=C/c2ccccc2)C(C(=O)/C=C/c2ccccc2)C1 (stereo not drawn),19.7 µM,16.8 µM,3.91 µM,3.73 µM,3.23 µM,3.24 µM,4.55 µM,–,–,–,–,–,–,–,–,–,–,–,–
COc1cc([C@@H]2c3cc4c(cc3[C@@H](NCc3cccc(F)c3)C3COC(=O)[C@@H]32)OCO4)cc(OC)c1O (stereo partly drawn),35.3 µM,10.9 µM,45.9 µM,29.5 µM,4.61 µM,45.3 µM,25.3 µM,–,–,–,–,–,–,–,–,–,–,–,–
Cc1ccc(C)c(NC(=O)C(=O)Nn2c(=S)[nH]c3ccccc3c2=O)c1,> 100 µM,> 100 µM,> 100 µM,> 100 µM,> 100 µM,> 100 µM,> 100 µM,–,–,–,–,–,–,–,–,–,–,–,> 100 µM
COc1cc(CCc2ccncc2)cc(OC)c1OC,–,> 100 µM,> 100 µM,> 100 µM,> 100 µM,> 100 µM,> 100 µM,–,–,–,–,–,–,–,–,–,–,–,–
C=C1C(=O)OC2(C)CCC1CC1OC1(C)CCC=C(C)CCC2O (stereo not drawn),> 100 µM,> 100 µM,> 100 µM,> 100 µM,> 100 µM,–,> 100 µM,> 100 µM,> 100 µM,–,–,–,–,–,–,–,–,–,–
C=CCCC(=O)CC(=O)OCc1ccccc1,> 100 µM,> 100 µM,–,> 100 µM,> 100 µM,–,> 100 µM,–,–,–,–,–,–,–,–,–,–,–,–
COC(=O)C#CC(N)=O,> 100 µM,> 100 µM,47.5 µM,> 100 µM,> 100 µM,> 100 µM,> 94.9 µM,–,–,–,–,–,–,–,–,–,–,–,60.7 µM
CC1OC(=O)N2CCC=CC12 (stereo not drawn),> 100 µM,> 100 µM,> 100 µM,> 100 µM,> 100 µM,> 100 µM,> 100 µM,–,–,–,–,–,–,–,–,–,–,–,–
C/C(=N\Nc1n[nH]c(=S)n1N)c1c(O)cc(C)oc1=O,> 100 µM,> 100 µM,> 100 µM,> 100 µM,> 100 µM,–,> 100 µM,–,–,–,–,–,–,–,–,–,–,–,> 100 µM
CNc1nc(-c2ccc3c(N)n[nH]c3c2)cc(N2C[C@@H](C(=O)NC3CCCCC3)CC[C@H]2C)n1,9.97 µM,20.8 µM,15.8 µM,17.1 µM,19.9 µM,8.78 µM,24.7 µM,11.2 µM,18.4 µM,0.495 µM,3.37 µM,1.68 µM,0.996 µM,2.25 µM,2.81 µM,1.31 µM,9.16 µM,0.405 µM,–
CN1C/C(=C\c2ccc(C(=O)O)cc2)C(=O)/C(=C/c2ccc(C(=O)O)cc2)C1,> 100 µM,> 100 µM,> 100 µM,> 100 µM,> 100 µM,> 100 µM,> 100 µM,–,–,–,–,–,–,–,–,–,–,–,> 100 µM
C#C[C@@H](CCCC)OC(=O)N[C@H](C)c1ccccc1,> 100 µM,> 100 µM,> 100 µM,> 100 µM,> 100 µM,–,> 100 µM,–,–,–,–,–,–,–,–,–,–,–,> 100 µM
COc1ccc(C2C3=C(COC3=O)N(CCO)c3cc4c(cc32)CCC4)cc1 (stereo not drawn),> 50 µM,> 50 µM,> 50 µM,24.9 µM,> 50 µM,27.1 µM,> 50 µM,> 50 µM,> 50 µM,8.78 µM,3.84 µM,5.31 µM,1.86 µM,1.7 µM,24 µM,4.24 µM,14.2 µM,6.22 µM,–

# Reference: PubChem BioAssay (NCI)
